Source: patent publication US20110105509A1 (Wyeth, LLC, priority 2009, published 2011)
pIC50: −log10 of the molar value.

target: T1, CRTH2 (Homo sapiens, UniProt Q9Y5Y4); experiment: FRET based competitive immunoassay (cAMP) in CRTH2 expressing CHO cells; format: cell-based; conditions: CRTH2 expressing CHO cells incubated with forskolin and PGD2; Eu3+ cryptate-labeled anti-cAMP and d2-labeled cAMP
T1 construct: expressed in transfected cells; host or cells: CHO cells
T1 sequence (Q9Y5Y4 1-395): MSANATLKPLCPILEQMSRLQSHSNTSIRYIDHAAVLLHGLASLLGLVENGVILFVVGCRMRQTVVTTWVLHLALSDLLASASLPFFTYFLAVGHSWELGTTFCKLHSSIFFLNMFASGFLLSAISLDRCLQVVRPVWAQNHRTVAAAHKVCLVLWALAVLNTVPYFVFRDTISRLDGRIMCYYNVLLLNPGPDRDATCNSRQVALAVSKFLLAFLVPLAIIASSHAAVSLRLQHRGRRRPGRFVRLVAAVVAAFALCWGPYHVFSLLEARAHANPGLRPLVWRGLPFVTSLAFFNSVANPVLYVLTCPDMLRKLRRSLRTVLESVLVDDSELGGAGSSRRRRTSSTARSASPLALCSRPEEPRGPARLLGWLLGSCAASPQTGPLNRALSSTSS
Method: FRET Assay: To evaluate potency compounds were tested in a FRET based competitive immunoassay in which CRTH2 expressing CHO cells were incubated in the presence of forskolin and PGD2 along with Eu3+ cryptate-labeled anti-cAMP and d2-labeled cAMP.

SMILES	pIC50
CC(C)=CCn1nc(-c2c(C)n(CC(=O)O)c3ccc(F)cc23)c2ccccc2c1=O [Example 130, 2-(5-fluoro-2-methyl-3-(3-(3-methylbut-2-enyl)-4-oxo-3,4-dihydro-phthalazin-1-yl)-1H-indol-1-yl)acetic acid]	< 6.00
CCC(=O)Cn1nc(-c2c(C)n(CC(=O)O)c3ccc(F)cc23)c2ccccc2c1=O [Example 133, 2-(5-fluoro-2-methyl-3-(4-oxo-3-(2-oxobutyl)-3,4-dihydrophthalazin-1-yl)-1H-indol-1-yl)acetic acid]	8.10
Cc1c(-c2nn(Cc3cccnc3)c(=O)c3ccccc23)c2cc(F)ccc2n1CC(=O)O [Example 135, 2-(5-fluoro-2-methyl-3-(4-oxo-3-(pyridin-3-ylmethyl)-3,4-dihydrophthalazin-1-yl)-1H-indol-1-yl)acetic acid]	8.30
Cc1c(-c2nn(CCC(C(F)(F)F)C(F)(F)F)c(=O)c3ccccc23)c2cc(F)ccc2n1CC(=O)O [Example 137, 2-(5-fluoro-2-methyl-3-(4-oxo-3-(4,4,4-trifluoro-3-(trifluoromethyl)butyl)-3,4-dihydrophthalazin-1-yl)-1H-indol-1-yl)acetic acid]	7.68
Cc1c(-c2nn(Cc3ccncc3F)c(=O)c3ccccc23)c2cc(F)ccc2n1CC(=O)O [Example 138, 2-(5-fluoro-3-(3-((3-fluoropyridin-4-yl)methyl)-4-oxo-3,4-dihydrophthalazin-1-yl)-2-methyl-1H-indol-1-yl)acetic acid]	8.30
Cc1c(-c2ccc(=O)n(Cc3ccc(F)cc3)n2)c2cc(Cl)ccc2n1CC(=O)O [Example 139, 2-(5-Chloro-3-(1-(4-fluorobenzyl)-6-oxo-1,6-dihydropyridazin-3-yl)-2-methyl-1H-indol-1-yl)acetic acid]	7.62
Cc1c(-c2ccc(=O)n(Cc3ccc(F)cc3C(F)(F)F)n2)c2cc(Cl)ccc2n1CC(=O)O [Example 142, 2-(5-chloro-3-(1-(4-fluoro-2-(trifluoromethyl)benzyl)-6-oxo-1,6-dihydro-pyridazin-3-yl)-2-methyl-1H-indol-1-yl)acetic acid]	7.72
Cc1cc(Cn2nc(-c3c(C)n(CC(=O)O)c4ccc(Cl)cc34)ccc2=O)c2ccccc2n1 [Example 145, 2-(5-chloro-2-methyl-3-(1-((2-methylquinolin-4-yl)methyl)-6-oxo-1,6-dihydropyridazin-3-yl)-1H-indol-1-yl)acetic acid]	6.84
Cc1ccc(Cn2nc(-c3c(C)n(CC(=O)O)c4ccc(Cl)cc34)ccc2=O)cc1 [Example 146, 2-(5-chloro-2-methyl-3-(1-(4-methylbenzyl)-6-oxo-1,6-dihydropyridazin-3-yl)-1H-indol-1-yl)acetic acid]	7.13
Cc1c(-c2ccc(=O)n(Cc3ccc(C(C)C)cc3)n2)c2cc(Cl)ccc2n1CC(=O)O [Example 147, 2-(5-chloro-3-(1-(4-isopropylbenzyl)-6-oxo-1,6-dihydropyridazin-3-yl)-2-methyl-1H-indol-1-yl)acetic acid]	6.48
COc1ccc(Cn2nc(-c3c(C)n(CC(=O)O)c4ccc(Cl)cc34)ccc2=O)cc1 [Example 148, 2-(5-chloro-3-(1-(4-methoxybenzyl)-6-oxo-1,6-dihydropyridazin-3-yl)-2-methyl-1H-indol-1-yl)acetic acid]	7.38
CCn1nc(-c2c(C)n(CC(=O)O)c3ccc(Cl)cc23)ccc1=O [Example 150, 2-(5-chloro-3-(1-ethyl-6-oxo-1,6-dihydropyridazin-3-yl)-2-methyl-1H-indol-1-yl)acetic acid]	6.25
Cc1c(-c2ccc(=O)n(Cc3cccc(F)c3)n2)c2cc(F)ccc2n1CC(=O)O [Example 154, 2-(5-Fluoro-3-(1-(3-fluorobenzyl)-6-oxo-1,6-dihydropyridazin-3-yl)-2-methyl-1H-indol-1-yl)acetic acid]	7.52
Cc1c(-c2ccc(=O)n(Cc3cccc(F)c3C(F)(F)F)n2)c2cc(F)ccc2n1CC(=O)O [Example 156, 2-(5-fluoro-3-(1-(3-fluoro-2-(trifluoromethyl)benzyl)-6-oxo-1,6-dihydro-pyridazin-3-yl)-2-methyl-1H-indol-1-yl)acetic acid]	7.60
Cc1c(-c2ccc(=O)n(Cc3ccc4ccccc4n3)n2)c2cc(F)ccc2n1CC(=O)O [Example 157, 2-(5-fluoro-2-methyl-3-(6-oxo-1-(quinolin-2-ylmethyl)-1,6-dihydro-pyridazin-3-yl)-1H-indol-1-yl)acetic acid]	7.24
Cc1cc(Cn2nc(-c3c(C)n(CC(=O)O)c4ccc(F)cc34)ccc2=O)c2ccccc2n1 [Example 158, 2-(5-fluoro-2-methyl-3-(1-((2-methylquinolin-4-yl)methyl)-6-oxo-1,6-dihydro-pyridazin-3-yl)-1H-indol-1-yl)acetic acid]	7.14
Cc1c(-c2ccc(=O)n(C)n2)c2cc(F)ccc2n1CC(=O)O [Example 159, 2-(5-fluoro-2-methyl-3-(1-methyl-6-oxo-1,6-dihydropyridazin-3-yl)-1H-indol-1-yl)acetic acid]	5.60
Cc1c(-c2ccc(=O)n(CC(F)(F)F)n2)c2cc(F)ccc2n1CC(=O)O [Example 162, 2-(5-Fluoro-2-methyl-3-(6-oxo-1-(2,2,2-trifluoroethyl)-1,6-dihydropyridazin-3-yl)-1H-indol-1-yl)acetic acid]	6.34
Cc1c(-c2ccc(=O)n(CCCC(F)(F)F)n2)c2cc(F)ccc2n1CC(=O)O [Example 163, 2-(5-fluoro-2-methyl-3-(6-oxo-1-(4,4,4-trifluorobutyl)-1,6-dihydropyridazin-3-yl)-1H-indol-1-yl)acetic acid]	6.06

Continued, values first:

pIC50	SMILES
7.27	Cc1c(-c2nn(CC(O)(C(F)(F)F)C(F)(F)F)c(=O)c3ccccc23)c2cc(F)ccc2n1CC(=O)O [Example 131, 2-(5-fluoro-2-methyl-3-(4-oxo-3-(3,3,3-trifluoro-2-hydroxy-2-(trifluoro-methyl)propyl)-3,4-dihydrophthalazin-1-yl)-1H-indol-1-yl)acetic acid]
7.12	Cc1c(-c2nn(CCC(C)(C)O)c(=O)c3ccccc23)c2cc(F)ccc2n1CC(=O)O [Example 132, 2-(5-fluoro-3-(3-(3-hydroxy-3-methylbutyl)-4-oxo-3,4-dihydrophthalazin-1-yl)-2-methyl-1H-indol-1-yl)acetic acid]
8.52	Cc1c(-c2nn(Cc3ccncc3)c(=O)c3ccccc23)c2cc(F)ccc2n1CC(=O)O [Example 134, 2-(5-fluoro-2-methyl-3-(4-oxo-3-(pyridin-4-ylmethyl)-3,4-dihydrophthalazin-1-yl)-1H-indol-1-yl)acetic acid]
8.40	Cc1c(-c2nn(Cc3ccccn3)c(=O)c3ccccc23)c2cc(F)ccc2n1CC(=O)O [Example 136, 2-(5-fluoro-2-methyl-3-(4-oxo-3-(pyridin-2-ylmethyl)-3,4-dihydrophthalazin-1-yl)-1H-indol-1-yl)acetic acid]
7.80	Cc1c(-c2ccc(=O)n(CCOc3ccc(Cl)cc3)n2)c2cc(Cl)ccc2n1CC(=O)O [Example 140, 2-(5-chloro-3-(1-(2-(4-chlorophenoxy)ethyl)-6-oxo-1,6-dihydropyridazin-3-yl)-2-methyl-1H-indol-1-yl)acetic acid]
7.34	Cc1c(-c2ccc(=O)n(Cc3nc4ccccc4s3)n2)c2cc(Cl)ccc2n1CC(=O)O [Example 141, 2-(3-(1-(benzo[d]thiazol-2-ylmethyl)-6-oxo-1,6-dihydropyridazin-3-yl)-5-chloro-2-methyl-1H-indol-1-yl)acetic acid]
7.26	Cc1c(-c2ccc(=O)n(Cc3cccc(F)c3C(F)(F)F)n2)c2cc(Cl)ccc2n1CC(=O)O [Example 143, 2-(5-chloro-3-(1-(3-fluoro-2-(trifluoromethyl)benzyl)-6-oxo-1,6-dihydro-pyridazin-3-yl)-2-methyl-1H-indol-1-yl)acetic acid]
7.96	Cc1c(-c2ccc(=O)n(Cc3ccc4ccccc4n3)n2)c2cc(Cl)ccc2n1CC(=O)O [Example 144, 2-(5-chloro-2-methyl-3-(6-oxo-1-(quinolin-2-ylmethyl)-1,6-dihydro-pyridazin-3-yl)-1H-indol-1-yl)acetic acid]
5.67	Cc1c(-c2ccc(=O)n(C)n2)c2cc(Cl)ccc2n1CC(=O)O [Example 149, 2-(5-chloro-2-methyl-3-(1-methyl-6-oxo-1,6-dihydropyridazin-3-yl)-1H-indol-1-yl)acetic acid]
7.92	Cc1c(-c2ccc(=O)n(CCOc3ccc(Cl)cc3)n2)c2cc(F)ccc2n1CC(=O)O [Example 152, 2-(3-(1-(2-(4-chlorophenoxy)ethyl)-6-oxo-1,6-dihydropyridazin-3-yl)-5-fluoro-2-methyl-1H-indol-1-yl)acetic acid]
7.60	Cc1c(-c2ccc(=O)n(Cc3nc4ccccc4s3)n2)c2cc(F)ccc2n1CC(=O)O [Example 153, 2-(3-(1-(benzo[d]thiazol-2-ylmethyl)-6-oxo-1,6-dihydropyridazin-3-yl)-5-fluoro-2-methyl-1H-indol-1-yl)acetic acid]
6.43	CCn1nc(-c2c(C)n(CC(=O)O)c3ccc(F)cc23)ccc1=O [Example 160, 2-(3-(1-ethyl-6-oxo-1,6-dihydropyridazin-3-yl)-5-fluoro-2-methyl-1H-indol-1-yl)acetic acid]
7.64	Cc1c(-c2ccc(=O)n(CC3CC3)n2)c2cc(F)ccc2n1CC(=O)O [Example 161, 2-(3-(1-(cyclopropylmethyl)-6-oxo-1,6-dihydropyridazin-3-yl)-5-fluoro-2-methyl-1H-indol-1-yl)acetic acid]
